This assay deals with Porcine Smooth Muscle Cell. Description: Effects of Compounds on Cell Proliferation Using 3H Thymidine Incorporation. Type of assay: cell-based. Particulars: serum/growth factor stimulated cells, 24-36 h incubation, read-out: Porcine Smooth Muscle Cell Antiproliferation IC50. As to the method:
Effects of Compounds on Cell Proliferation Using ^3H Thymidine Incorporation
Human and porcine smooth muscle cells were tested in early passage (generally passage 3-7) at sub-confluent conditions. Cultures were grown in 16 mm (24 well) multi-well culture dishes in medium 199 supplemented with 10% fetal bovine serum and 2% antibiotic/antimycotic. At sub-confluence, the cells were placed in a defined serum free medium (AIM-V; Gibco) for 24-48 h prior to initiating the experimental protocol.
Compounds were added to each well at 50 fold dilution (20 μL/well) and the plates were incubated for 24-36 h at 37° C. in 5% CO2. Compounds were initially dissolved in 50% ethanol and serially diluted into media. Compounds were routinely evaluated at concentrations from 1 to 100 μM. As a control, grade II porcine intestinal mucosal heparin (sodium salt) was routinely evaluated in all cell preparations at concentrations from 0.1 to 100 μg/mL.
At the completion of the test procedure, plates were placed on ice, washed three times with ice cold phosphate buffered saline (PBS) and incubated in ice cold 10% trichloroacetic acid (TCA) got 30 min to remove acid soluble proteins. Solution was transferred to scintillation vials containing 0.4 N HCl (500 μL/vial to neutralize NaOH) and each well was rinsed two times with water (500 μL) for a total volume of 2 mL/vial.
Data was obtained, in triplicate, for both control and experimental samples. Control (100%) data was obtained from maximally stimulated cells, as the result of growth factor or serum stimulation. Experimental data was obtained from cells maximally stimulated with growth factor or serum and treated with compound. Data are expressed as an IC50 or percent inhibition in Table I below.

As for `CC(=O)Nc1cc(COC2OC(COC(=O)c3ccc(Cl)c([N+](=O)[O-])c3)C(OC3OC4COC(c5ccccc5)OC4C(O)C3OC(C)=O)C(OC(C)=O)C2OC(C)=O)ccc1Cl` [Example 39, N-{5-[(2,2′,3,-Tri-O-Acetyl-6-O-(4-chloro-3-nitrobenzoyl)-4′,6′-O-(benzylidene)-β-D-maltosyl)-oxymethyl]-2-chloro-phenyl)-acetamide], the IC50 was 2530 nM.
For the molecule `COC(=O)CCCC(=O)OCC1OC(OCc2ccc(Cl)c(NC(C)=O)c2)C(O)C(O)C1OC1OC2COC(c3ccccc3)OC2C(O)C1O` [Example 28, (R)-N-[2-Chloro-5-[[[6-O-(5-methoxy-1,5-dioxopentyl)-4-O-[4,6-O-(phenylmethylene)-α-D-glucopyranoysl]-β-D-gluconyranosyl]oxy]methyl]-phenyl]acetamide], the IC50 was 400 nM.
The value for `CC(=O)Nc1cc(COC2OC(COC(C)=O)C(OC3OC4COC(c5ccccc5)OC4C(OC(C)=O)C3OC(C)=O)C(OC(C)=O)C2OC(C)=O)ccc1Cl` [Example 25, N-{5-[(4′,6′-O-Benzylidene-2,2′,3,3′,6-penta-O-acetyl-β-D-maltosyl-oxy)-methyl]-2-chloro-phenyl}-acetamide] was 700 nM; that for `CC(=O)Nc1cc(CO[C@@H]2O[C@H](COc3ccccc3)[C@@H](O[C@H]3O[C@@H]4COC(c5ccccc5)O[C@H]4[C@H](O)[C@H]3O)[C@H](O)[C@H]2O)ccc1Cl` (stereo partly drawn) [Example 60, N-{5-[(4′,6′-O-Benzylidene-6-O-phenyl-β-D-maltosyl)-oxy-methyl]-2-chloro-phenyl}-acetamide] was 38 nM; that for “N-{5-[(6-O-(3-Benzyl-1-oxo-propyl)-4′,6′-O-benzylidene-β-D-maltosyl)-oxy-methyl]-2-chloro-phenyl}-carbamic acid methyl ester [Example 82]” was 352 nM.
For `CC(=O)Nc1cc(CO[C@@H]2O[C@H](COC(=O)c3ccccc3)[C@@H](O[C@H]3O[C@@H]4COC(c5ccc([N+](=O)[O-])cc5)O[C@H]4[C@H](O)[C@H]3O)[C@H](O)[C@H]2O)ccc1Cl` (stereo partly drawn) [Example 11, N-(5-{[6-O-Benzoyl-4′,6′-O-(4-nitro)-benzylidene-β-D-maltosyl]-oxy-methyl}-2-chloro-phenyl)-acetamide], the IC50 was 3 nM.
For the molecule `CC(=O)Nc1cc(COC2OC(COS(=O)(=O)c3ccc(C)cc3)C(OC3OC4COC(c5ccccc5)OC4C(O)C3O)C(O)C2O)ccc1Cl` [Example 6, N-(5-{[4′,6′-O-Benzylidene-6-O-(4-toluenesulfonyl)-β-D-maltosyl]-oxy-methyl}2-chloro-phenyl)-acetamide], the IC50 amounted to 133 nM.
Consider `CC(=O)Nc1cc(COC2OC(COCc3ccccc3)C(OC3OC4COC(c5ccccc5)OC4C(O)C3O)C(O)C2O)ccc1Cl` [Example 8, N-{5-[(6-O-Benzyl-4′,6′-O-benzylidene-β-D-maltosyl)-oxy-methyl]-2-chloro-phenyl}-acetamide], for which the IC50 turned out to be 1 nM.
Turning to `O=C(Nc1cc(CO[C@@H]2O[C@H](COC(=O)c3ccccc3)[C@@H](O[C@H]3O[C@@H]4CO[C@@H](c5ccccc5)O[C@H]4[C@H](O)[C@H]3O)[C@H](O)[C@H]2O)ccc1Cl)c1cccnc1` [Example 62, (R)-N-[5-[[[6-O-Benzoyl-4-O-[4′,6′-O-(phenylmethylene)-α-D-glucopyranosyl]-β-D-glucopyranosyl]oxy]methyl]-2-chlorophenyl]-3-pyridinecarboxamide], the IC50 stood at 23 nM.
The value for `CC(=O)Nc1cc(COC2OC(COC(=O)CCCc3ccccc3)C(OC3OC4COC(c5ccccc5)OC4C(O)C3O)C(O)C2O)ccc1Cl` [Example 49, N-{5-[(4′,6′-O-Benzylidene-6-O-phenyl-propyl-carboxyl-β-D-maltosyl)-oxy-methyl]-2-chloro-phenyl}-acetamide] was 104 nM; that for `CC(=O)Nc1cc(COC2OC(COC(=O)c3ccc(C(=O)c4ccccc4)cc3)C(OC3OC4COC(c5ccccc5)OC4C(O)C3O)C(O)C2O)ccc1Cl` [Example 56, (R)-N-[5-[[[6-O-(4-Benzoylbenzoyl)-4-O-[4,6-O-(phenylmethylene)-α-D-glucopyranosyl]-β-D-glucopyranosyl]oxy]methyl]-2-chlorophenyl]acetamide] was 530 nM.
With `CC(=O)Nc1cc(CO[C@@H]2O[C@H](COC(=O)CCc3ccccc3)[C@@H](O[C@H]3O[C@@H]4COC(c5ccccc5)O[C@H]4[C@H](O)[C@H]3O)[C@H](O)[C@H]2O)ccc1Cl` (stereo partly drawn) [Example 48, N-{5-[(4′,6′-O-Benzylidene-6-O-phenyl-ethyl-carboxyl-β-D-maltosyl)-oxy-methyl]-2-chloro-phenyl}-acetamide], the IC50 was determined as 7 nM.
In the case of `CC(=O)Nc1cc(COC2OC(COC(=O)c3ccc(C#N)cc3)C(OC3OC4COC(c5ccccc5)OC4C(O)C3O)C(O)C2O)ccc1Cl` [Example 40, (R)-N-[2-Chloro-5-[[[6-O-(4-cyanobenzoyl)-4-O-[4,6O-(phenylmethylene)-α-D-glucopyranosyl]-β-D-glucopyranosyl]oxy]methyl]phenyl]acetamide] it was 92 nM; in that of `CC(=O)Nc1cc(COC2OC(COC(=O)c3ccccc3)C(OC3OC4COC(c5ccc(Cl)cc5)OC4C(O)C3O)C(O)C2O)ccc1Cl` [Example 13, N-{1 5-[(6-O-Benzoyl-4′,6′-O-(4-chloro)-benzylidene-β-D-maltosyl)-oxy-methyl]-2-chloro-phenyl}-acetamide], 23 nM; in that of `CC(=O)Nc1cc(COC2OC(COS(=O)(=O)c3ccc(C)cc3)C(OC3OC4COC(c5ccccc5)OC4C(OC(C)=O)C3OC(C)=O)C(OC(C)=O)C2OC(C)=O)ccc1Cl` [Example 7, N-(5-{[2,32′,3′-Tetra-O-acetyl-4′,6′-O-benzylidene-6-O-(4-toluenesulfonyl)-β-D-maltosyl]-oxy-methyl}-2-chloro-phenyl)-acetamide], 88 nM.
In the case of `CC(=O)Nc1cc(COC2OC(CO)C(OC3OC4COC(c5ccc(Cl)cc5)OC4C(O)C3O)C(O)C2O)ccc1Cl` [Example 12, N-{2-Chloro-5-[(4′,6′-O-(4-chloro)-benzylidene-β-D-maltosyl)-oxy-methyl]-phenyl}-acetamide] it was 29400 nM; in that of `CC(=O)Nc1cc(COC2OC(COS(=O)(=O)c3ccc(C)cc3)C(OC3OC4COC(c5ccccc5)OC4C(O)C3O)C(O)C2O)ccc1C` [Example 59, N-(5-{[4′,6′-O-Benzylidene-6-O-(4-toluenesulfonyl)-β-D-maltosyl]-oxy-methyl}-2-methyl-phenyl)-acetamide], 490 nM.
`CC(=O)Nc1cc(COC2OC(COC(=O)c3ccc(I)cc3)C(OC3OC4COC(c5ccccc5)OC4C(O)C3O)C(O)C2O)ccc1Cl` [Example 45, N-{5-[(4′,6′-O-Benzylidene-6-(4-iodo-benzoyl)-oxy-β-D-maltosyl)-oxy-methyl]-2-chloro-phenyl}-acetamide]: the IC50 was found to be 6440 nM.
In the case of `CC(=O)OC1C(OC2C(COC(=O)c3ccccc3)OC(OCc3ccc(Cl)c([N+](=O)[O-])c3)C(OC(C)=O)C2OC(C)=O)OC2COC(c3ccccc3)OC2C1OC(C)=O` [Example 31, (R)-(4-Chloro-3-nitrophenyl)methyl-2,3-di-O-acetyl-6-O-benzoyl-4-O-[2,3-di-O-acetyl-4,6-O-(phenylmethylene)-α-D-glucopyranosyl]-β-D-glucopyranoside], the IC50 was determined as 380 nM.
For `CCC1OCC2OC(OC3C(COC(=O)c4ccccc4)OC(OCc4ccc(Cl)c(NC(C)=O)c4)C(O)C3O)C(O)C(O)C2O1` [Example 5, N-{5-[(6-O-Benzoyl-4′,6′-O-propylidene-β-D-maltosyl)-oxy-methyl]-2-chloro-phenyl}-acetamide], the IC50 turned out to be 37 nM.
`C[C@H](N)C(=O)Nc1cc(CO[C@@H]2O[C@H](COC(=O)c3ccccc3)[C@@H](O[C@H]3O[C@@H]4COC(c5ccccc5)O[C@H]4[C@H](O)[C@H]3O)[C@H](O)[C@H]2O)ccc1Cl` (stereo partly drawn) [Example 77, N′-{5-[(6-O-benzoyl-4′,6′-O-benzylidene-β-D-maltosyl)-oxy-methyl]-2-chloro-phenyl}-L-alaninamide]: the IC50 was found to be 81 nM.
With `O=C(Nc1cc(COC2OC(COC(=O)c3ccc(I)cc3)C(OC3OC4COC(c5ccccc5)OC4C(O)C3O)C(O)C2O)ccc1Cl)c1ccc(C(=O)c2ccccc2)cc1` [Example 74, 4-Benzoyl-N-{5-[(4′,6′-O-benzylidene-6-(4-iodo-benzoyl)-oxy-β-D-maltosyl)-oxy-methyl]-2-chloro-phenyl}-benzoic acid amide], the IC50 was 1220 nM.
The value for `O=C(OCC1OC(OCc2ccc(Cl)c([N+](=O)[O-])c2)C(O)C(O)C1OC1OC2COC(c3ccccc3)OC2C(O)C1O)c1ccccc1` [Example 30, 4-Chloro-3-nitro-benzyl-6-O-benzoyl-4′,6′-O-benyzlidene-β-D-maltoside] was 351 nM; that for `O=[N+]([O-])c1cc(COC2OC(CO)C(OC3OC4COC(c5ccccc5)OC4C(O)C3O)C(O)C2O)ccc1Cl` [Example 29, 4-Chloro-3-nitro-benzyl-4′,6′-O-benyzlidene-β-D-maltoside] was 44100 nM.
For `O=[N+]([O-])c1cc(CSC2OC(CO)C(OC3OC4COC(c5ccccc5)OC4C(O)C3O)C(O)C2O)ccc1Cl` (stereo not shown) [Example 86, 6-[-6-(4-Chloro-3-nitro-benzylsulfanyl)-4,5-dihydroxy-2-hydroxymethyl-tetrahydro-pyran-3-yloxy]-2-phenyl-hexahydro-pyrano[3,2-d][1.3]dioxine-7.8-diol], the IC50 was 16300 nM.

For the origin of these results see patent US6340670B1, “Acetal benzylmaltosides as inhibitors of smooth muscle cell proliferation” (American Home Products Corporation, priority 1998, dated 2002).
